The subject of data set [1] is human lungs. The data set is described as follows: Bioorthogonal azide labeling during EVLP, histological detection in human lung sections. To be noted: Ac4GalNAz vs vehicle in perfusate, 6 hour EVLP. As for the experimental part:
Immunostaining: Rehydrated rat or human lung sections were incubated with antigen unmasking solution at 95° C. for 20 minutes. After cooling down, the sections were reacted with Alkyne-PEG4-biotin (Click Chemistry Tools, TA105) under copper-catalyzed cycloaddition (CuAAC) conditions (Rostovtsev et al., 2002, Angewandte Chemie., 114:2708-2711), or reacted without copper catalyst as a control. All samples were blocked with 1% bovine serum albumin (BSA) in PBS for 20 minutes and incubated with a primary antibody against Laminin (Abcam, Cambridge, UK; ab11575) at a dilution of 1:500. The slides were then stained with streptavidin conjugated to ALEXA FLUOR®-647 (Invitrogen, S21374) and Donkey-anti-Rabbit IgG conjugated to ALEXA FLUOR®-488 (Invitrogen, A32790) at a dilution of 1:500. All slides were mounted with DAPI-containing Fluoromount solution (SouthernBiotech, Birmingham, AL; 0100-20). Single-field images were taken using confocal microscopy and stitched images were taken by EVOS FL Auto 2 Imaging System (Thermo Fisher Scientific, Waltham, MA). For quantification, three random fields were taken in each lung section. Azide >biotin intensities for each field taken were measured by Fiji software (Schindelin et al., supra). Laminin channels were converted to 8-bit and intensities were measured for Laminin coverage areas. […]

Data set [2] concerns post-EVLP lungs. The data set is described as follows: LC-MS/MS proteomic analysis of Input and Eluate samples of lungs with or without Ac4GalNAz during EVLP. Also noted: species or system rat. To be noted: before affinity enrichment. On the procedure:
Chemoselective enrichment of azide-tagged proteins: Cellular protein extracts of the lungs were reacted with Alkyne-PEG4-desthiobiotin (Click Chemistry Tools, 1109) under CuAAC conditions. Proteins were precipitated with four volumes of ice-cold acetone at −20° C. overnight to remove unreacted Alkyne-PEG4-desthiobiotin. The protein pellets were air-dried and re-dissolved in 2% SDS in PBS (pH 7.40), and then saved as Input samples. Following quantification by BCA, an aliquot of each Input sample containing 1.7 mg of protein was introduced to 75 μL streptavidin-conjugated resin (Thermo Fisher Scientific; 53117) for desthiobiotinylated protein pull-down. Following a 3-hour binding period, Supernatants were collected and the resins were washed 7 times for 15 minutes each with 2% SDS, 40 mM additional NaCl in PBS (pH 7.40). The pulled-down proteins were eluted with 30 mM biotin in 2% SDS, 40 mM additional NaCl in PBS (pH 7.40) (Eluting buffer) at room temperature for 1 hour. […] Protein concentrations of the Eluate samples were determined by BCA assay, and the eluates were then stored at −80° C. for SDS-PAGE and proteomic analysis. […]
Samples were analyzed using a UPLC-MS/MS system consisting of an Easy-nLC 1200 ultra-high-pressure liquid chromatography system and an Orbitrap Fusion Lumos mass spectrometer (Thermo Fisher Scientific). […]

The test system of data set [3] is rat lungs. The data set is described as follows: Bioorthogonal azide labeling of NewS-glycoproteins during EVLP, histological detection. The conditions noted are these: 100 μM Ac4GalNAz vs 0.1% DMSO in Steen solution, 4-hour EVLP. On the procedure: (§1) Ex vivo lung perfusion (EVLP) in rats: EVLP was performed using a commercially available rodent EVLP system (IL-2 Isolated Perfused Rat or Guinea Pig Lung System; Harvard Apparatus, Holliston, MA) as described elsewhere (Noda et al., 2014, Eur J Cardio-Thorac Surg., 45:e54-60; and (Noda et al., 2021, Sci Rep., 11:12265). Acellular Steen solution (XVIVO Perfusion AB, Denver, CO) was used for perfusate and lungs were medicated with methylprednisolone (SOLU-MEDROL®; Pfizer, Inc., New York, NY) and cephalosporin (Cefazolin; WG Critical Care LLC, Paramus, NJ) equally in all experimental groups using EVLP. […] Pulmonary artery pressure, peak airway pressure, and airway flow were monitored continuously, and dynamic lung compliance and pulmonary vascular resistance were also analyzed. […]
Immunostaining: Rehydrated rat or human lung sections were incubated with antigen unmasking solution at 95° C. for 20 minutes. […] For quantification, three random fields were taken in each lung section. Azide >biotin intensities for each field taken were measured by Fiji software (Schindelin et al., supra). Laminin channels were converted to 8-bit and intensities were measured for Laminin coverage areas. […]

Data set [4] deals with healthy rat lungs. The data set is described as follows: Effect of Ac4GalNAz probe on lung graft quality during EVLP (morphology, physiology). To be noted: 100 μM Ac4GalNAz vs vehicle perfusion, monitored every hour, 4-hour EVLP. As for the experimental part:
as §1
Airspace morphology evaluation: Following EVLP, the lungs receiving Ac4GaIN Az or vehicle control administration were fixed in Formalin, embedded in paraffin, and sectioned to a thickness of 5 μm. […] Horizontal and vertical mean linear intercepts of each image were measured by Fiji software (Schindelin et al., 2012, Exp Rev Resp Med., 11:119-128), following a protocol described elsewhere (Crowley et al., 2019, BMC Pulm Med., 19:206) The mean values of horizontal and vertical mean linear intercepts of the three images were calculated as the estimated airspace size average of each lung section.

For `CC(=O)OC[C@H]1OC(OC(C)=O)[C@H](NC(=O)CN=[N+]=[N-])[C@@H](OC(C)=O)[C@H]1OC(C)=O` (some centres unmarked) [Ac4GalNAz, N-azidoacetylgalactosamine-tetraacylated], the “Azide labeling of lung tissue (azide→biotin fluorescence)” value in data set [1] is reported as “also was observed”. Also, the “Effect on overall lung proteome (Input samples, Pearson correlation, hierarchical clustering)” value in data set [2] is “did not significantly alter”. Besides, the “Azide labeling of lung tissue (azide→biotin fluorescence)” value in data set [3] was “robust and specific azide labeling”. Besides, in data set [4], the “Lung compliance during EVLP” value is “no significant differences” and the “Pulmonary vascular resistance during EVLP” value is recorded as “no significant differences”.

(Values after patent US20260169002A1, “PROFILING NEWLY-SYNTHESIZED GLYCOPROTEINS AS MOLECULAR SIGNATURES OF INJURY IN DONOR ORGANS” (Carnegie Mellon University, priority 2022, published 2026).)
